# Measurements taken from US8193168B2, “Use of a TRPM5 inhibitor to regulate insulin and GLP-1 release” (Redpoint Bio Corporation, priority 2007, dated 2012).
# How the values were obtained:
# GLUTag cells = experiment: GLP-1 release from GLUTag cells (GLP-1 ELISA); format: cell-based, mouse; conditions: for IC50: Mus musculus, GLUTag cells
# Beta-TC-6 cells = experiment: Insulin release enhancement in Beta-TC-6 cells (insulin ELISA); format: cell-based, mouse; conditions: for Percent Enhancement of Insulin Secretion (10 μM): compound at 10 μM, compared to glucose-dependent insulin production
# Procedure: Beta-TC-6 cells are an insulin-secreting cell line derived from transgenic mice expressing the large T-antigen of simian virus 40 (SV40) in pancreatic beta-cells as described by Poitout et al., Diabetes, 44:306-313 (1995). The cell line was obtained from ATCC cell bank CAT# CRL-11506 and grown in Dulbecco's Modified Eagle's Medium (DMEM) with 15% fetal bovine serum (FBS), 4 mM glutamine, 4.5 mM glucose 1500 mg/L sodium bicarbonate and 1× penn/strep antibiotic mix in a 37° C. incubator with 5% CO2. Cultures were routinely split 1:2 twice a week with the aid of trypsin.
# On the day before the assay 0.1×10^6 Beta-TC-6 cells were plated into each well of 96 well plates, and the cells cultured overnight in growth media.
# On the next day, growth media was removed from the plate and the monolayers rinsed with phosphate buffered saline (PBS) and pre-incubated 30 mins at 37° C. in Krebs-Ringer Bicarbonate Buffer (KRBB) consisting of 118.5 mM NaCl, 2.54 mM CaCl2, 1.19 mM KH2PO4, 4.74 mM KCl, 25 mM NaHCO3, 1.19 mM MgSO4, 10 mM HEPES buffer and 0.1% bovine serum albumin at pH 7.4. This buffer was removed and replaced with 100 μL of the same buffer containing various insulin release modulators: including various concentrations of glucose up to 12 mM and compounds up to 100 μM. Compounds stock solutions, e.g. 10-20 mM, were diluted in DMSO. Final DMSO concentrations in incubation buffer were 0.5% or less. Vehicle controls were included. Static incubations were then performed for 2 h at 37° C. The entire incubation volume was collected after the 2 h incubation for insulin assay.
# ELISA Protocol for insulin determinations. The following protocol was used for doing ELISA using the Rat/Mouse Insulin ELISA Kit from Linco Research, Inc., CAT#EZRMI-13K and Amplex® Red Hydrogen Peroxide/Peroxidase Assay Kit, CAT#A22188, and Amplex® Red reagent (10-acetyl-3,7-dihydroxyphenoxazine) CAT#A12222.
# All reagents were Pre-warmed to room temperature before setting up experiment.
# 1. Dilute the 10× washing buffer into 1× washing buffer. 50 mL+450 mL de-ionized water. Do 1:10 dilution to the cell culture supernatant (Beta-TC-6 cell incubation).
# 2. Use one column (8 wells) wells for standard samples and QC1 and QC2, typically 0 and 5 ng/mL of insulin. On some plates full standard curves for insulin obtained as shown below.
# 3. Cover the unused wells well. Wash each well 3 times with 300 μL of 1× washing buffer each time. (2 minutes each washing step on the shaker.) Decant Wash Buffer and remove the residual amount from all wells by inverting the plate and tapping it smartly onto absorbent towels several times.
# 4. Add 20 μL Assay Buffer into that blank well and 10 μL into those wells for standards and samples.
# 5. Add 10 μL rat insulin standards and samples to the appropriate wells.
# 6. Add 80 μL Detection Antibody to all wells. Cover the plate and incubate at room temperature for 2 hours.
# 7. Tear off the plate cover and decant solutions from the plate. Tap to remove residual solutions in well.
# 8. Wash well 3 times with diluted wash buffer 300 μL per well per wash (2 minutes each washing step on the shaker). Tap to remove residual solutions as before.
# 9. Add 100 μL Enzyme Solution to each well. Cover plate with sealer and incubate with moderate shaking at room temperature for 30 min on the microtiter plate shaker.
# 10. Remove sealer, decant solutions from the plate and tap plate to remove the residual fluid.
# 11. Wash wells 6 times with diluted Wash Buffer, 300 μL per well per wash. Decant and tap after each wash to remove residual buffer.
# 12. Prepare 5 mL working solution of […] Amolex Red reagent containing 2.0 mM H2O2. 4.45 mL of 1× Reaction buffer+50 μL 10 mM Amplex Reagent+500 μL 20 mM H2O2.
# 13. Add 100 μL of the Amplex Red reagent/H2O2 to each well.
# 14. Incubate the reactions. Incubate at room temperature for 30 minutes, protected from light (using foil to wrap the plate). […]
# [1] = moderately high glucose (3.3 mM), FIG. 18
smiles,measurement,setting,value
"COc1ccc(/C=N/NC(=O)Cc2cccc3ccccc23)cc1OC [Example 3, (E)-N′-(3,4-Dimethoxybenzylidene)-2-(naphthalene-1-yl)acetohydrazide]",GLP-1 secretion,"GLUTag cells; 10 mM glucose, FIG. 16",enhances GLP-1 secretion
same,IC50,"GLUTag cells; low glucose (0.1 mM), FIG. 19",0.6 µM
same,GLP-1 release,"GLUTag cells; low glucose (0.1 mM), FIG. 19",increase GLP-1 release
same,GLP-1 release,GLUTag cells; [1],increase GLP-1 release
same,insulin secretion,Beta-TC-6 cells; FIG. 5,increases insulin secretion
same,Percent Enhancement of Insulin Secretion (10 μM),Beta-TC-6 cells,250%
same,glucose dependence of stimulation of insulin release,"Beta-TC-6 cells; varying glucose concentration, FIG. 3 and FIG. 7",increases insulin secretion in a glucose-dependent manner
"COc1ccc(/C=N/NC(=O)CCn2c3ccccc3c3ccccc32)cc1OC [Example 23, 3-Carbazol-9-ylpropionic acid (3,4-dimethoxybenzylidene)hydrazide]",IC50,"GLUTag cells; low glucose (0.1 mM), FIG. 19",0.111 µM
same,GLP-1 release,"GLUTag cells; low glucose (0.1 mM), FIG. 19",increase GLP-1 release
same,GLP-1 release,GLUTag cells; [1],increase GLP-1 release
same,Percent Enhancement of Insulin Secretion (10 μM),Beta-TC-6 cells,208%
